Data taken from patent US12391684B2, “Pharmaceutical formulations and methods for the treatment of gastrointestinal disorders” (Renexxion, LLC, priority 2018, dated 2025).
Structures can show the parent of a compound that is named as a salt. Where two headings read alike, the source gives them in different places.

How the values were obtained:
[1] = for Resulting Form: Antisolvent Water, Ambient, stirred 3 weeks
Description: Noncompetitive Slurry Experiments for Polymorph Screening: Noncompetitive slurry experiments were performed as a supplemental polymorph screening method. When suspensions of a polymorphic material are prepared, any polymorphic form with a lower solubility (more thermodynamically stable form) can nucleate. The nucleated forms can convert all the residual solids to the nucleated form via solvent-mediated phase transition. Suspensions of the isolated Form I were prepared by adding excess solid to several different solvent systems. The suspensions were stirred vigorously at ambient temperature for 3 weeks. The remaining solids were collected by vacuum filtration and analyzed by powder X-ray diffraction to determine if any changes in the crystalline form of the solids occurred.

[2] = Dehydration profile by thermographic analysis (TGA); format: physicochemical; conditions: dry nitrogen, 5° C./minute, 25° C. to 250° C.
Description: Thermographic analysis (TGA) curves were generated for the anhydrate and trihydrate using a Perkin Elmer TGA-7. Three to five milligram samples were weighed into aluminum sample pans and run under dry nitrogen at 5° C./minute from 25° C. to 250° C. The data were exported to Excel to enable plotting.

[3] = 12-month stability of the anhydrous form in stability chambers (HPLC purity, water content); format: physicochemical; conditions: 25° C./60% RH
Description: The dihydrochloride salt, anhydrous form of (3S, 4R, 3′R)-6-[4-(4-amino-5-chloro-2-methoxy-benzoylamino)-3-methoxy-piperidin-1-yl]-hexanoic acid 1-azabicyclo[2.2.2]oct-3′-yl ester, was placed in stability chambers with temperature and humidity controlled, for up to 12 months. The temperature was set at 25° C., and the relative humidity was set at 60%. The samples were assayed at time zero, then at 3, 6, 9, and 12 months using an HPLC method. The HPLC conditions were as follows: • Column: Inertsil C8-3, 250 mm length, 3 mm diameter, 5 μm particle size • Mobile Phase A: 2000 mL water+3 mL formic acid • Mobile Phase B: 1000 mL methanol+3 mL formic acid • Flow rate: 0.6 mL/min • Detection wavelength: 275 nm • Injection volume: 20 uL • Time: 50 minutes

[4] = Stability of the trihydrate form stored in bulk in a GMP storage facility; format: physicochemical; conditions: room temperature, relative humidity >30%, up to 11 years
Description: The trihydrate form was evaluated for stability with regard to purity and strength over a time period of up to 11 years, by storing it in a GMP facility under controlled conditions of temperature and relative humidity (temperature=room temperature and relative humidity >30%).

**Q.** Which “Resulting Form” value ([1]; Solvent 1-Propanol) does the source give for `COc1cc(N)c(Cl)cc1C(=O)N[C@@H]1CCN(CCCCCC(=O)O[C@H]2CN3CCC2CC3)C[C@@H]1OC` [Form I, (3S, 4R, 3′R)-6-[4-(4-amino-5-chloro-2-methoxy-benzoylamino)-3-methoxy-piperidin-1-yl]-hexanoic acid 1-azabicyclo[2.2.2]oct-3′-yl ester] here?
**A.** Its value is “Form 1”.

**Q.** And the “Resulting Form” value ([1]; Solvent Acetonitrile)?
**A.** The value was “Form 1”.

**Q.** What about the “Resulting Form” value ([1]; Solvent Ethanol) of the same compound?
**A.** The value was “Form 1”.

**Q.** What about the “Resulting Form” value ([1]; Solvent Methanol) of the same compound?
**A.** Its value is “Form 1”.

**Q.** And the “Resulting Form” value ([1]; Solvent Water)?
**A.** Its value is “Form 1”.

**Q.** And the “Thermodynamic stability among anhydrous forms” value ([1]; outcome of the slurry experiments)?
**A.** The value was “most thermodynamically stable anhydrous form”.

**Q.** With `COc1cc(N)c(Cl)cc1C(=O)N[C@@H]1CCN(CCCCCC(=O)O[C@H]2CN3CCC2CC3)C[C@@H]1OC` [(3S, 4R, 3′R)-6-[4-(4-amino-5-chloro-2-methoxy-benzoylamino)-3-methoxy-piperidin-1-yl]-hexanoic acid 1-azabicyclo[2.2.2]oct-3′-yl ester] as the compound, how does the “Dehydration mass loss (TGA)” value [2] read?
**A.** The value was “absent”.

**Q.** And the “Purity HPLC (Area %)” value ([3]; 3 months)?
**A.** Its value is 99.2 Area %.

**Q.** What about the “Water Content” value ([3]; 3 months) of the same compound?
**A.** The value was 6.47%.

**Q.** What about the “Purity HPLC (Area %)” value ([3]; 6 months) of the same compound?
**A.** Its value is 99.3 Area %.

**Q.** What about the “Water Content” value ([3]; 6 months) of the same compound?
**A.** Its value is 8.47%.

**Q.** What about the “Water Content” value ([3]; 6 months, listed as Anhydrous Form of the Dihydrochloride Salt) of the same compound?
**A.** Its value is 8.47%.

**Q.** What about the “Purity HPLC (Area %)” value ([3]; 9 months) of the same compound?
**A.** The value was 99.2 Area %.

**Q.** And the “Water Content” value ([3]; 9 months)?
**A.** The value was 8.20%.

**Q.** What about the “Purity HPLC (Area %)” value ([3]; 12 months) of the same compound?
**A.** Its value is 99.3 Area %.

**Q.** And the “Water Content” value ([3]; 12 months)?
**A.** Its value is 8.43%.

**Q.** What about the “Purity HPLC (Area %)” value ([3]; time 0 months) of the same compound?
**A.** Its value is 99.3 Area %.

**Q.** And the “Water Content” value ([3]; time 0 months)?
**A.** The value was 0.45%.

**Q.** What about the “Water Content” value ([3]; time 0 months, listed as Anhydrous Form of the Dihydrochloride Salt) of the same compound?
**A.** The value was 0.45%.

**Q.** And the “Decrease in strength of the active ingredient due to increase in water content” value ([3]; up to 12 months)?
**A.** Its value is “approximately 8%”.

**Q.** What about the “Purity of the compound versus specifications (Purity HPLC Area %)” value ([3]; up to 12 months) of the same compound?
**A.** Its value is “remained within the specifications”.

**Q.** For `COc1cc(N)c(Cl)cc1C(=O)N[C@@H]1CCN(CCCCCC(=O)O[C@H]2CN3CCC2CC3)C[C@@H]1OC` [Compound 1, (3S, 4R, 3′R)-6-[4-(4-amino-5-chloro-2-methoxy-benzoylamino)-3-methoxy-piperidin-1-yl]-hexanoic acid 1-azabicyclo[2.2.2]oct-3′-yl ester di-hydrochloride salt], which “Stability under GMP storage” value [4] is on record?
**A.** Its value is “stable under GMP storage”.
